Source: ChEMBL document CHEMBL5537189 (J Med Chem, 2024)

How the values were obtained:
[1] = molecular target: T1, Retinoic acid receptor RXR-gamma (Homo sapiens, UniProt P48443)
T1 sequence (P48443 whole entry): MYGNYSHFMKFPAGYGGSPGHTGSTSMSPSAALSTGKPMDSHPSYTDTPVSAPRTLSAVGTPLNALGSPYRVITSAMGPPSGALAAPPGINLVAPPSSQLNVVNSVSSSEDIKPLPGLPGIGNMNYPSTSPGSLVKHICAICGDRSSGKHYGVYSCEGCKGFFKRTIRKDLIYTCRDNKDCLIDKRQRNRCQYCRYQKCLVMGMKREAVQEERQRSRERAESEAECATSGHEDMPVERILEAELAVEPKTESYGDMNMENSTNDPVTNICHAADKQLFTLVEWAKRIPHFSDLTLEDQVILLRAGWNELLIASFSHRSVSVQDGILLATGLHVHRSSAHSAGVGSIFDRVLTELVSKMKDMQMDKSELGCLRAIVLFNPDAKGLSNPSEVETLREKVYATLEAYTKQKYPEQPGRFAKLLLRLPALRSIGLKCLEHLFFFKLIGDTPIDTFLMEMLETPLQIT

[2] = molecular target: T2, Retinoic acid receptor RXR-beta (Homo sapiens, UniProt P28702); assay: Partial agonist activity at full length human RXR beta transfected in HEK293T cells assessed as DR1 activation incubated for 16 hrs by Dual-glo luciferase assay; format: cell-based
T2 sequence (P28702 whole entry): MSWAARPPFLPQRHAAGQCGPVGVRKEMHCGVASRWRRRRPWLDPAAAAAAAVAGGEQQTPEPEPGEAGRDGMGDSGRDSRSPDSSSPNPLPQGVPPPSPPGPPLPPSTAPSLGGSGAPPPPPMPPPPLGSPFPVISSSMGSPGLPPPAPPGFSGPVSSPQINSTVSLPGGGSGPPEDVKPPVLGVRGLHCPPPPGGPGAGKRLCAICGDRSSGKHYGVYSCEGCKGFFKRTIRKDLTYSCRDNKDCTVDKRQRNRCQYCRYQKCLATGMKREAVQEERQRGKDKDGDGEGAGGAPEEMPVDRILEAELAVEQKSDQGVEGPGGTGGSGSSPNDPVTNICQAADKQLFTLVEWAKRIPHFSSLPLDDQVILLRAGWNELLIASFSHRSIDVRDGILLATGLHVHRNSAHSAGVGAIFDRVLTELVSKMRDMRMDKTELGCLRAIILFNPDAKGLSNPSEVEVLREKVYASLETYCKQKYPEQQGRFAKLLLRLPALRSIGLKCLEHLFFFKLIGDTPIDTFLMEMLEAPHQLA

[3] = molecular target: T3, Retinoic acid receptor RXR-alpha (Homo sapiens, UniProt P19793)
T3 sequence (P19793 whole entry): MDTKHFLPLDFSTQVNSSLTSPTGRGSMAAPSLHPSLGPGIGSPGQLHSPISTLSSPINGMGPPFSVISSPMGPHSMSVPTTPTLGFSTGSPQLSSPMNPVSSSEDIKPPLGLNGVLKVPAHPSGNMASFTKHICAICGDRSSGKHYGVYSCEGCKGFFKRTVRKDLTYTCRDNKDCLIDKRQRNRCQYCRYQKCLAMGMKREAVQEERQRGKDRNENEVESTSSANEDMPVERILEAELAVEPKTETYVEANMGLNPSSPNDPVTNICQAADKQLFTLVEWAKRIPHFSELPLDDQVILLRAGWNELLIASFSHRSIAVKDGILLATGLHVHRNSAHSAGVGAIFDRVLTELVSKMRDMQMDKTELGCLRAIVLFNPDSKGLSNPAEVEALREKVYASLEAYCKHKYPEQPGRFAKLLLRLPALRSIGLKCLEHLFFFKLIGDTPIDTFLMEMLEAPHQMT

[4] = molecular target: T2, Retinoic acid receptor RXR-beta
Description: Partial agonist activity at recombinant human RXR beta LBD (298 to 533 residues) expressed in Escherichia coli Rosetta incubated for 16 hrs by Gal4-hybrid reporter gene based Dual-glo luciferase assay

SMILES	EC50 [1] [nM]	EC50 [2]	EC50 [3] [nM]	EC50 [4] [nM]
CC1CCN(c2cc(Cl)nc(OCCC(=O)O)n2)c2cc(Cl)ccc21 (stereo unspecified)	100	–	–	–
Cc1cc(C)c2c(c1)N(c1cc(Cl)nc(OCCC(=O)O)n1)CCC2	40	–	–	–
CC1CCc2ccccc2N1c1cc(Cl)nc(OCCC(=O)O)n1 (stereo unspecified)	–	Not Active	–	–
CC1CCN(c2cc(Cl)nc(OCCC(=O)O)n2)c2ccccc21 (stereo unspecified)	50	–	7	100
CC1(C)CCN(c2cc(Cl)nc(OCCC(=O)O)n2)c2ccccc21	11	–	9	–
O=C(O)CCOc1nc(Cl)cc(N2CCCc3ccccc32)n1	680	–	110	–
Cc1cccc2c1CCCN2c1cc(Cl)nc(OCCC(=O)O)n1	480	–	90	–
CN(c1cc(Cl)nc(OCCC(=O)O)n1)c1cccc2c1CCC2	1200	–	–	–
Cc1ccc2c(c1)N(c1cc(Cl)nc(OCCC(=O)O)n1)CCC2C (stereo unspecified)	60	–	40	34
CN(c1cccc(Cl)c1)c1cc(Cl)nc(OCCC(=O)O)n1	2400	–	560	–
CN(c1ccc(Cl)c(Cl)c1)c1cc(Cl)nc(OCCC(=O)O)n1	6000	–	–	–
CN(c1ccccc1)c1cc(Cl)nc(OCCC(=O)O)n1	31000	–	4200	–
CC1Cc2ccccc2N(c2cc(Cl)nc(OCCC(=O)O)n2)C1 (stereo unspecified)	220	–	29	34
CN(c1cccc(Br)c1)c1cc(Cl)nc(OCCC(=O)O)n1	1800	–	–	–
O=C(O)CCOc1nc(Cl)cc(N2CCCc3ccc(Cl)cc32)n1	140	–	19	–
Cc1cc(C)cc(N(C)c2cc(Cl)nc(OCCC(=O)O)n2)c1	160	–	–	–
CN(c1cc(Cl)nc(OCCC(=O)O)n1)c1cccc(Cl)c1Cl	14000	–	3200	–
CN(c1cc(Cl)cc(Cl)c1)c1cc(Cl)nc(OCCC(=O)O)n1	–	–	260	–
Cc1ccc2c(c1)N(c1cc(Cl)nc(OCCC(=O)O)n1)CCC2	–	–	38	–
Cc1cccc(N(C)c2cc(Cl)nc(OCCC(=O)O)n2)c1	2600	–	400	–
CN(c1cc(C(F)(F)F)cc(C(F)(F)F)c1)c1cc(Cl)nc(OCCC(=O)O)n1	–	–	150	–
CN(c1cccc(C(F)(F)F)c1)c1cc(Cl)nc(OCCC(=O)O)n1	2700	–	–	–
